According to patent US8741934B2, “Inhibitors of ion channels” (Pfizer Limited, priority 2007, dated 2014):

Assays:
[1] = biological target: T1, hSCN3A sodium channels (Homo sapiens, UniProt Q9NY46); assay: hSCN3A electrophysiology, whole-cell patch-clamp or PatchXpress 7000, estimated IC-50 (Table B); type: cell-based; conditions: estimated IC-50; hSCN3A cells, whole-cell patch-clamp or PatchXpress 7000; read-out: SCN3A EIC-50
T1 construct: expressed in transfected cells
Protocol: Human Embryonic Kidney (HEK) cells were transfected with an hSCN3A construct using lipofectamine reagent (Invitrogen), using standard techniques. […] Clones were screened for expression using the whole-cell voltage-clamp technique.
HEK cells stably transfected with hSCN3A were maintained in DMEM medium supplemented with 10% heat-inactivated fetal bovine serum and 400 μg/ml G418 sulfate in an incubator at 37° C. with a humidified atmosphere of 10% CO2. […] For electrophysiological studies, cells were removed from the culture flask by brief trypsinization and replated at low density onto glass cover slips. Cells were typically used for electrophysiological experiments within 24 to 72 h after plating.
All recordings were made at room temperature (22-24° C.) using AXOPATCH 200B amplifiers and PCLAMP software (Axon Instruments, Burlingame, Calif.) or PatchXpress 7000 hardware and associated software (Axon Instruments, Burlingame, Calif.).
Current records were acquired at 20 to 50 KHz and filtered at 5 to 10 KHz.
HEK cells stably transfected with hSCN3A were viewed under Hoffman contrast optics and placed in front of an array of flow pipes emitting either control or compound-containing extracellular solutions. All compounds were dissolved in dimethyl sulfoxide to make 10 mM stock solutions, which were then diluted into extracellular solution to attain the final concentrations desired.
The voltage-dependence of inactivation was determined by applying a series of depolarizing prepulses (8 sec long in 10 mV increments) from a negative holding potential. The voltage was then immediately stepped to 0 mV to assess the magnitude of the sodium current. Currents elicited at 0 mV were plotted as a function of prepulse potential to allow estimation of the voltage midpoint of inactivation (V1/2). Cells were then voltage clamped at the empirically determined V1/2.
Compounds were tested for their ability to inhibit hSCN3A sodium channels by activating the channel with a 20 msec voltage step to 0 mV following an 8 second conditioning prepulse to the empirically determined V1/2 (Table B). Compound effect (% inhibition) was determined by difference in current amplitude before and after application of test compounds. […] Inhibition values <20% and >80% were excluded from the calculation.
In some cases electrophysiological assays were conducted with PatchXpress 7000 hardware and associated software (Molecular Devices Corp) (Table B). All assay buffers and solutions were identical to those used in conventional whole-cell voltage clamp experiments described above. hSCN3A cells were grown as above to 50%-80% confluency and harvested by trypsinization. Trypsinized cells were washed and resuspended in extracellular buffer at a concentration of 1×10^6 cells/ml. The onboard liquid handling facility of the PatchXpress was used for dispensing cells and application of test compounds. Determination of the voltage midpoint of inactivation was as described for conventional whole-cell recordings. Cells were then voltage-clamped to the empirically determined V1/2 and current was activated by a 20 msec voltage step to 0 mV.

[2] = biological target: T1, hSCN3A sodium channels; assay: hSCN3A electrophysiology, Ionworks Quattro automated platform (Table C); type: cell-based; conditions: for inhibition at 3 µM: read-out: SCN3A % INHIB HTS IWQ 3 μM; for inhibition at 10 µM: read-out: SCN3A % INHIB HTS IWQ 10 μM; for SCN3A INHIB INACT DRC EP IWQ EMAX: Emax of dose-response curve, inactivated state; for IC50: read-out: SCN3A IWQ IC-50
Method in brief: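 HEK cells stably expressing hSCN3A were recorded in perforated-patch mode with 100 μg/ml amphotericin on Ionworks Quattro. The protocol used an inactivating step, a brief hyperpolarized partial recovery, then a depolarized test step. Inhibition was taken from current amplitude before versus after compound addition.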

T1 sequence (Q9NY46 whole entry): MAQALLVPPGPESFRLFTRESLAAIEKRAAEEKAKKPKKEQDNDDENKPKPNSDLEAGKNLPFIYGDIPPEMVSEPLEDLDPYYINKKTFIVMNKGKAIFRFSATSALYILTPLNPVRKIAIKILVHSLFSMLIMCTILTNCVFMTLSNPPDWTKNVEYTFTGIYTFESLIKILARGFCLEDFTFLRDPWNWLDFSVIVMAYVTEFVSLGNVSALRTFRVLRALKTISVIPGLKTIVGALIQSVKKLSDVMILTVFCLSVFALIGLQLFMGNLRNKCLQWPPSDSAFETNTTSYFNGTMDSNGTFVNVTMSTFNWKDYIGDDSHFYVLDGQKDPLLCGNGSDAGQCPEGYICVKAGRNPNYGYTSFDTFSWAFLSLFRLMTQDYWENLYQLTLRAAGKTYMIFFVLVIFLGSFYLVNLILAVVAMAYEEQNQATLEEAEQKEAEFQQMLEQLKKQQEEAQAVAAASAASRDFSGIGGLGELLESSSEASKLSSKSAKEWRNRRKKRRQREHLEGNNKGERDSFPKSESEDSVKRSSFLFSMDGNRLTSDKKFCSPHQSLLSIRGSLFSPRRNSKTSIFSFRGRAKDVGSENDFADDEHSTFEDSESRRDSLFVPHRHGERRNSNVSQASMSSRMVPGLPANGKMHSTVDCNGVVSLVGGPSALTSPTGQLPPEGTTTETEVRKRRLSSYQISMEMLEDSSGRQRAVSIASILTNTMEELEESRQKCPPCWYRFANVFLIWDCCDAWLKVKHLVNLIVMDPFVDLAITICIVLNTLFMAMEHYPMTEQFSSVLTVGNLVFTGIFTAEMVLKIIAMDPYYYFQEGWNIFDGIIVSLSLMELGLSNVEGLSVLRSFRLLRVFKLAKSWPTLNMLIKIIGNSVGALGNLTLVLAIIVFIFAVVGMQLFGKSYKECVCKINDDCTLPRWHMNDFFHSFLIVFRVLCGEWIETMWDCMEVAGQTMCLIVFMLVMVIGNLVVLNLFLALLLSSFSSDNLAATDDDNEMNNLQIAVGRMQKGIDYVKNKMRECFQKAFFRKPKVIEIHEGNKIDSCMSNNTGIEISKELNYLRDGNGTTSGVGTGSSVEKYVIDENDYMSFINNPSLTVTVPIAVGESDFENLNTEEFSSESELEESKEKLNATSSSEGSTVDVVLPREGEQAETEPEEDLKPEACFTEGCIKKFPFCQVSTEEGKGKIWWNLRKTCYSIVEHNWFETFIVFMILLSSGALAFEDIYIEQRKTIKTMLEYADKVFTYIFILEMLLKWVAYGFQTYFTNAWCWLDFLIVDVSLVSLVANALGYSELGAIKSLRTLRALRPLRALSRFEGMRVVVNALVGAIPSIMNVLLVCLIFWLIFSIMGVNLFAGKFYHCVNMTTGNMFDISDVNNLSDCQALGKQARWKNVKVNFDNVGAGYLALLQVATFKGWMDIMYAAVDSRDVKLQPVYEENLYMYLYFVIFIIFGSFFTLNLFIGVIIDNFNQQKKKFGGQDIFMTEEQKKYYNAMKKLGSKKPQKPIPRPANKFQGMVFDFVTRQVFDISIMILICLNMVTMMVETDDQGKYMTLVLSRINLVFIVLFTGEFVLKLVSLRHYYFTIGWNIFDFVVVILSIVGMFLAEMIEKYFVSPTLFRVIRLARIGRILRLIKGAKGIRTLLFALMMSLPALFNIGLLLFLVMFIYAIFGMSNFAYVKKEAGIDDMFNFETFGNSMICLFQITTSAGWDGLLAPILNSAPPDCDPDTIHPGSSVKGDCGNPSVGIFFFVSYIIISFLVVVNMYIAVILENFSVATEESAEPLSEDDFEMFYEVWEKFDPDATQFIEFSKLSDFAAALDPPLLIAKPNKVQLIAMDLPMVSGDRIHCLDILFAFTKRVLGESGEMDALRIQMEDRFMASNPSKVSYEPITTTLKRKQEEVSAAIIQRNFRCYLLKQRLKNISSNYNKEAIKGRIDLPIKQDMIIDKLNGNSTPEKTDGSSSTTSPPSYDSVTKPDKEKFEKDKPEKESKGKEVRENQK

Row | SMILES | inhibition at 3 µM ([2]; 3 μM compound) [%] | inhibition at 10 µM ([2]; 10 μM compound) [%] | other results
1 | O=C(NCc1ccc(OC(F)(F)F)c(F)c1)c1ccc(S(=O)(=O)Nc2ncc(Cl)s2)cc1Cl [Example 337, 2-Chloro-4-{[(5-chloro-1,3-thiazol-2-yl)amino]sulfonyl}-N-[3-fluoro-4-(trifluoromethoxy)benzyl]benzamide] |  |  | IC50 [1]: 0.39 µM
2 | O=C(NCc1ccc(C(F)(F)F)c(Cl)c1)c1ccc(S(=O)(=O)Nc2nccs2)c(F)c1 [Example 306, N-[3-chloro-4-(trifluoromethyl)benzyl]-3-fluoro-4-[(1,3-thiazol-2-ylamino)sulfonyl]benzamide] |  |  | IC50 [1]: 0.04 µM
3 | CCN(C(=O)c1ccc(S(=O)(=O)Nc2nccs2)cc1)C(C)C(=O)c1ccccc1 (stereo not drawn) [Example 209, N-ethyl-N-(1-methyl-2-oxo-2-phenylethyl)-4-[(1,3-thiazol-2-yl-amino)sulfonyl]benzamide] | 5.72 | -5.23 | 
4 | O=C(c1ccc(S(=O)(=O)Nc2nccs2)cc1)N1CCCC(COc2cc(F)cc(F)c2)C1 (stereo not drawn) [Example 271, 4-({3-[(3,5-Difluorophenoxy)methyl]piperidin-1-yl}carbonyl)-N-1,3-thiazol-2-yl-benzenesulfonamide] | 35.8 | 41.4 | SCN3A INHIB INACT DRC EP IWQ EMAX [2]: 52.4; IC50 [2]: 26.4 µM
5 | O=C(c1ccc(S(=O)(=O)Nc2nccs2)cc1)N1CCCC1Cc1ccccc1 (stereo not drawn) [Example 197, 4-[(2-Benzylpyrrolidin-1-yl)carbonyl]-N-1,3-thiazol-2-yl-benzenesulfonamide] | 17.6 | 17.4 | 
6 | O=C(c1ccc(S(=O)(=O)Nc2nccs2)cc1)N1CCSCC1c1ccc(F)cc1 (stereo not drawn) [Example 223, 4-{[3-(4-Fluorophenyl)thiomorpholin-4-yl]carbonyl}-N-1,3-thiazol-2-yl-benzenesulfonamide] | 36.9 | 47.5 | SCN3A INHIB INACT DRC EP IWQ EMAX [2]: 46.3; IC50 [2]: 33 µM
7 | O=C(N[C@@H]1CCC[C@@H]1c1ccc(F)cc1)c1ccc(S(=O)(=O)Nc2nccs2)cc1 [Example 132, N-[(1R,2R)-2-(4-fluorophenyl)cyclopentyl]-4-[(1,3-thiazol-2-ylamino)sulfonyl]benzamide] | 19.7 | 15.3 | 
8 | O=C(c1ccc(S(=O)(=O)Nc2nccs2)cc1)N1CCOCC(Cc2ccccc2)C1 (stereo not drawn) [Example 259, 4-[(6-Benzyl-1,4-oxazepan-4-yl)carbonyl]-N-1,3-thiazol-2-yl-benzenesulfonamide] | 5.51 | 19.6 | 
9 | O=C1[C@@H]2CC[C@@H]3[C@H]1C(c1ccccc1)N(C(=O)c1ccc(S(=O)(=O)Nc4nccs4)cc1)[C@H]3C2 (stereo partly drawn) [Example 192, 4-{[(3S,3aR,6R,7aS)-8-oxo-2-phenyloctahydro-1H-3,6-methanoindol-1-yl]carbonyl}-N-1,3-thiazol-2-yl-benzenesulfonamide] | 6.18 | 26 | 
10 | O=C(c1ccc(S(=O)(=O)Nc2nccs2)cc1)N1CCCC1c1ccccc1F (stereo not drawn) [Example 281, 4-{[2-(2-Fluorophenyl)pyrrolidin-1-yl]carbonyl}-N-1,3-thiazol-2-yl-benzenesulfonamide] | 10.2 | 28.9 | 
11 | O=C(c1ccc(S(=O)(=O)Nc2nccs2)cc1)N1CCCC1c1ccccn1 (stereo not drawn) [Example 283, 4-[(2-Pyridin-2-ylpyrrolidin-1-yl)carbonyl]-N-1,3-thiazol-2-ylbenzenesulfonamide] | -1.98 | 0.98 | 
12 | O=C(NCC1(c2ccccc2)CCCC1)c1ccc(S(=O)(=O)Nc2nccs2)cc1 [Example 121, N-[(1-phenylcyclopentyl)methyl]-4-[(1,3-thiazol-2-ylamino)sulfonyl]benzamide] | 31.1 | 30.2 | 
13 | CCc1ccc(C)nc1NC(=O)c1ccc(S(=O)(=O)Nc2nccs2)cc1 [Example 178, N-(3-ethyl-6-methylpyridin-2-yl)-4-[(1,3-thiazol-2-ylamino)sulfonyl]benzamide] | 2.71 | 1.55 | 
14 | COc1ccc(CC2COCCN(C(=O)c3ccc(S(=O)(=O)Nc4nccs4)cc3)C2)cc1F (stereo not drawn) [Example 199, 4-{[6-(3-Fluoro-4-methoxybenzyl)-1,4-oxazepan-4-yl]carbonyl}-N-1,3-thiazol-2-yl-benzenesulfonamide] | 10.2 | 7.42 | 
15 | Cc1cccc(CN2CCN(C(=O)c3ccc(S(=O)(=O)Nc4nccs4)cc3)CC2=O)c1 [Example 276, 4-{[4-(3-Methylbenzyl)-3-oxopiperazin-1-yl]carbonyl}-N-1,3-thiazol-2-yl-benzenesulfonamide] | 18.1 | 20.6 | 
16 | Cc1cc(CC(NC(=O)c2ccc(S(=O)(=O)Nc3nccs3)cc2)c2ccc(F)cc2)on1 (stereo not drawn) [Example 156, N-[1-(4-fluorophenyl)-2-(3-methylisoxazol-5-yl)ethyl]-4-[(1,3-thiazol-2-ylamino)sulfonyl]benzamide] | 13.3 | 30.3 | 
17 | O=C(NCc1cc(C(F)(F)F)ccc1F)c1ccc(S(=O)(=O)Nc2nccs2)cc1 [Example 76, N-[2-fluoro-5-(trifluoromethyl)benzyl]-4-[(1,3-thiazol-2-ylamino)sulfonyl]benzamide] | 35.8 | 52.1 | 
18 | O=C(c1ccc(S(=O)(=O)Nc2nccs2)cc1)N1CCCCC1CCn1cccn1 (stereo not drawn) [Example 190, 4-({2-[2-(1H-pyrazol-1-yl)ethyl]piperidin-1-yl}carbonyl)-N-1,3-thiazol-2-yl-benzenesulfonamide] | 2.77 | -8.21 | 
19 | Cc1cccc(CC2COCCN(C(=O)c3ccc(S(=O)(=O)Nc4nccs4)cc3)C2)n1 (stereo not drawn) [Example 225, 4-({6-[(6-Methylpyridin-2-yl)methyl]-1,4-oxazepan-4-yl}carbonyl)-N-1,3-thiazol-2-yl-benzenesulfonamide] | 6.08 | -8.14 | 
20 | Cc1ccc(C2CCCCN2C(=O)c2ccc(S(=O)(=O)Nc3nccs3)cc2)cc1 (stereo not drawn) [Example 207, 4-{[2-(4-Methylphenyl)piperidin-l-yl]carbonyl}-N-1,3-thiazol-2-yl-benzenesulfonamide] |  |  | SCN3A % INHIB HTS IWQ 3 μM ([2]; 3 μM compound): 27.25%; SCN3A % INHIB HTS IWQ 10 μM ([2]; 10 μM compound): −16.86%
21 | O=C(c1ccc(S(=O)(=O)Nc2nccs2)cc1)N1CCOC(C2CC2)C1 (stereo not drawn) [Example 231, 4-[(2-Cyclopropylmorpholin-4-yl)carbonyl]-N-1,3-thiazol-2-yl-benzenesulfonamide] | 3.22 | -7.02 | 
22 | O=C(NCc1cccc(C(F)(F)F)c1)c1ccc(S(=O)(=O)Nc2nccs2)c(Cl)c1 [Example 288, 3-Chloro-4-[(1,3-thiazol-2-ylamino)sulfonyl]-N-[3-(trifluoromethyl)benzyl]benzamide] | 4.38 | 13.4 | 
23 | O=C(c1ccc(S(=O)(=O)Nc2nccs2)cc1)N1CCCC1Cc1ccccc1F (stereo not drawn) [Example 233, 4-{[2-(2-Fluorobenzyl)pyrrolidin-1-yl]carbonyl}-N-1,3-thiazol-2-yl-benzenesulfonamide] | 18.5 | 15.9 | 
24 | Cc1cnc(NC(=O)c2ccc(S(=O)(=O)Nc3nccs3)cc2)c(C)c1 [Example 184, N-(3,5-dimethylpyridin-2-yl)-4-[(1,3-thiazol-2-ylamino)sulfonyl]benzamide] | 29 | 20.8 | 
25 | O=C(NC1(Cc2cccc(Cl)c2)CC1)c1ccc(S(=O)(=O)Nc2nccs2)cc1 [Example 137, N-[1-(3-chlorobenzyl)cyclopropyl]-4-[(1,3-thiazol-2-ylamino)sulfonyl]benzamide] | 21.8 | 36.2 | 
26 | CN(CC(O)c1ccccc1)C(=O)c1ccc(S(=O)(=O)Nc2nccs2)cc1 (stereo not drawn) [Example 250, N-(2-hydroxy-2-phenylethyl)-N-methyl-4-[(1,3-thiazol-2-yl-amino)sulfonyl]benzamide] | -4.32 | 0.12 | 
